# What was measured:
# [1] = tested on: women with insomnia secondary to perimenopause or menopause; assay: Clinical study: Physician Global Assessment of perimenopausal or menopausal symptoms; assay type: in vivo; details: ITT; for Physician Global Assessment, Observed Value, Mean (SD): score 1 = Very much improved to 7 = Very much worse; for Physician Global Assessment, Observed Value, Least Squares Means (SE) [1]: ANOVA
# Method: (§1) The study was aimed at observing efficacy of eszopiclone 3 mg compared to placebo in the treatment of insomnia secondary to perimenopause or menopause. The study was a multicenter, randomized, double-blind, placebo-controlled, parallel-group study. […] The primary method of analysis compared the post-randomization results between the two treatment groups.
# (§2) Subjects were women with insomnia secondary to perimenopause or menopause. Subjects were perimenopausal or menopausal and had insomnia symptoms including ≧45 minutes sleep latency (SL) and total sleep time (TST) ≦6 hours. Perimenopausal/menopausal symptoms predated the onset of sleep disturbance symptoms. The patient population was predominately Caucasian (77.2%). The mean age was 49, with a range of 40-60.
# (§3) A total of 410 subjects were randomized. Among them, 201 received 3 mg of eszopiclone (ESZ) nightly (at bedtime) for four weeks and 209 received matching placebo (PBO).
# A Physician Global Assessment was administered at Week 4, the end of the double-blind treatment period.
# conscious dogs = assay: Dose escalation safety study, cardiovascular and respiratory parameters; details: acute intravenous, 3, 5 and 12 mg/kg
# Method: To establish the safety of eszopiclone, a dose escalation study was carried out. Cardiovascular and respiratory parameters were evaluated in conscious dogs following acute intravenous administration of (R)-, (S)- or racemic zopiclone at three doses (3, 5 and 12 mg/kg).
# [2] = tested on: women with insomnia secondary to perimenopause or menopause; assay: Clinical study: discontinuation rates; assay type: in vivo; details: 3 mg nightly for four weeks
# Method: as §1, §2, §3
# mice = assay: Antimuscarinic activity in vivo: oxotremorine induced salivation; details: doses up to 300 mg/kg, p.o.
# Method: Eszopiclone was evaluated for antimuscarinic activity in vivo.
# muscarinic receptors = assay: In vitro affinity for muscarinic receptors; assay type: binding
# [3] = tested on: women with insomnia secondary to perimenopause or menopause; assay: Clinical study: number of nocturnal awakenings due to hot flashes; assay type: in vivo
# Method: as §1, §2, §3
smiles,measurement,setting,value
"CN1CCN(C(=O)O[C@H]2c3nccnc3C(=O)N2c2ccc(Cl)cn2)CC1 [Eszopiclone, (+)6-(5-chloropyrid-2-yl)-5-(4-methylpiperazin-1-yl)carbonyloxy-7-oxo-6,7-dihydro-5H-pyrrolo[3-4-b]pyrazine]","Physician Global Assessment, Observed Value, 25th Percentile","[1]; Visit 3 (Baseline), 3 mg group",4.0
same,"Physician Global Assessment, Observed Value, 75th Percentile","[1]; Visit 3 (Baseline), 3 mg group",4.0
same,"Physician Global Assessment, Observed Value, Maximum","[1]; Visit 3 (Baseline), 3 mg group",7.0
same,"Physician Global Assessment, Observed Value, Median","[1]; Visit 3 (Baseline), 3 mg group",4.0
same,"Physician Global Assessment, Observed Value, Minimum","[1]; Visit 3 (Baseline), 3 mg group",0.0
same,"Physician Global Assessment, Observed Value, Mean (SD)","[1]; Visit 3 (Baseline), 3 mg group, 0 = Not assessed",3.7 (1.0)
same,"Physician Global Assessment, Change from Baseline, 25th Percentile","[1]; Visit 5 (Week 4), 3 mg nightly",−2.0
same,"Physician Global Assessment, Change from Baseline, 75th Percentile","[1]; Visit 5 (Week 4), 3 mg nightly",0.0
same,"Physician Global Assessment, Change from Baseline, Maximum","[1]; Visit 5 (Week 4), 3 mg nightly",6.0
same,"Physician Global Assessment, Change from Baseline, Mean (SD)","[1]; Visit 5 (Week 4), 3 mg nightly",−1.0 (1.4)
same,"Physician Global Assessment, Change from Baseline, Median","[1]; Visit 5 (Week 4), 3 mg nightly",−1.0
same,"Physician Global Assessment, Change from Baseline, Minimum","[1]; Visit 5 (Week 4), 3 mg nightly",−4.0
same,"Physician Global Assessment, Observed Value, 25th Percentile","[1]; Visit 5 (Week 4), 3 mg nightly",2.0
same,"Physician Global Assessment, Observed Value, 75th Percentile","[1]; Visit 5 (Week 4), 3 mg nightly",4.0
same,"Physician Global Assessment, Observed Value, Maximum","[1]; Visit 5 (Week 4), 3 mg nightly",6.0
same,"Physician Global Assessment, Observed Value, Median","[1]; Visit 5 (Week 4), 3 mg nightly",2.0
same,"Physician Global Assessment, Observed Value, Minimum","[1]; Visit 5 (Week 4), 3 mg nightly",1.0
same,"Physician Global Assessment, Change from Baseline, Least Squares Means (SE) [2]","[1]; Visit 5 (Week 4), 3 mg nightly, ANCOVA",−0.9 (0.1)
same,"Physician Global Assessment, Observed Value, Least Squares Means (SE) [1]","[1]; Visit 5 (Week 4), 3 mg nightly",2.7 (0.1)
same,"Physician Global Assessment, Observed Value, Least Squares Means (SE) [1]","[1]; Visit 5 (Week 4), 3 mg nightly, listed as ESZ",2.7
same,"Physician Global Assessment, Observed Value, Mean (SD)","[1]; Visit 5 (Week 4), 3 mg nightly",2.6 (1.2)
same,"cardiotoxicity, as evidenced by the electrocardiogram (ECG)",conscious dogs,No evidence of cardiotoxicity
same,effect on blood pressure,conscious dogs,"dose dependent, transient decreases in blood pressure"
same,effect on heart rate,conscious dogs,compensatory increase in heart rate
same,"Blood gases and blood chemistries (pH, pCO2, pO2, hematocrit, and lactate)",conscious dogs; all dose groups,remained unaffected
same,discontinuation rate,[2],11.9%
same,antagonism of oxotremorine induced salivation,mice,"neither (R)-, (S)-, nor racemic zopiclone significantly antagonized oxotremorine induced salivation"
same,in vitro affinity for muscarinic receptors,muscarinic receptors,lack of in vitro affinity
same,"Number of Nocturnal Awakenings due to Hot Flashes, Observed Value, Mean (SD)","[3]; Baseline (average of all pre-DB observations), 3 mg group, ITT",1.3 (1.2)
same,"Number of Nocturnal Awakenings due to Hot Flashes, Observed Value, 25th Percentile","[3]; Baseline, 3 mg group, ITT",0.3
same,"Number of Nocturnal Awakenings due to Hot Flashes, Observed Value, 75th Percentile","[3]; Baseline, 3 mg group, ITT",2.0
same,"Number of Nocturnal Awakenings due to Hot Flashes, Observed Value, Maximum","[3]; Baseline, 3 mg group, ITT",6.0
same,"Number of Nocturnal Awakenings due to Hot Flashes, Observed Value, Median","[3]; Baseline, 3 mg group, ITT",1.0
same,"Number of Nocturnal Awakenings due to Hot Flashes, Observed Value, Minimum","[3]; Baseline, 3 mg group, ITT",0.0
same,"Number of Nocturnal Awakenings due to Hot Flashes, Change from Baseline, 25th Percentile","[3]; DB Average, 3 mg nightly, ITT",−1.1
same,"Number of Nocturnal Awakenings due to Hot Flashes, Change from Baseline, 75th Percentile","[3]; DB Average, 3 mg nightly, ITT",0.0
same,"Number of Nocturnal Awakenings due to Hot Flashes, Change from Baseline, Maximum","[3]; DB Average, 3 mg nightly, ITT",1.5
same,"Number of Nocturnal Awakenings due to Hot Flashes, Change from Baseline, Mean (SD)","[3]; DB Average, 3 mg nightly, ITT",−0.7 (1.0)
same,"Number of Nocturnal Awakenings due to Hot Flashes, Change from Baseline, Median","[3]; DB Average, 3 mg nightly, ITT",−0.5
same,"Number of Nocturnal Awakenings due to Hot Flashes, Change from Baseline, Minimum","[3]; DB Average, 3 mg nightly, ITT",−6.0
same,"Number of Nocturnal Awakenings due to Hot Flashes, Observed Value, 25th Percentile","[3]; DB Average, 3 mg nightly, ITT",0.0
same,"Number of Nocturnal Awakenings due to Hot Flashes, Observed Value, 75th Percentile","[3]; DB Average, 3 mg nightly, ITT",0.9
same,"Number of Nocturnal Awakenings due to Hot Flashes, Observed Value, Maximum","[3]; DB Average, 3 mg nightly, ITT",2.7
same,"Number of Nocturnal Awakenings due to Hot Flashes, Observed Value, Mean (SD)","[3]; DB Average, 3 mg nightly, ITT",0.5 (0.6)
same,"Number of Nocturnal Awakenings due to Hot Flashes, Observed Value, Median","[3]; DB Average, 3 mg nightly, ITT",0.2
same,"Number of Nocturnal Awakenings due to Hot Flashes, Observed Value, Minimum","[3]; DB Average, 3 mg nightly, ITT",0.0
same,"Number of Nocturnal Awakenings due to Hot Flashes, Change from Baseline, Least Squares Means (SE) [3]","[3]; DB Average, 3 mg nightly, ITT, ANCOVA",−0.7 (0.1)
same,"Number of Nocturnal Awakenings due to Hot Flashes, Observed Value, Least Squares Means (SE) [2]","[3]; DB Average, 3 mg nightly, ITT, ANOVA",0.5 (0.1)
same,"nocturnal awakenings due to hot flashes, LS means","[3]; Week 1, 3 mg nightly",0.3 per night
same,"Number of Nocturnal Awakenings due to Hot Flashes, Change from Baseline, 25th Percentile","[3]; Week 1, 3 mg nightly, ITT",−1.2
same,"Number of Nocturnal Awakenings due to Hot Flashes, Change from Baseline, 75th Percentile","[3]; Week 1, 3 mg nightly, ITT",0.0
same,"Number of Nocturnal Awakenings due to Hot Flashes, Change from Baseline, Maximum","[3]; Week 1, 3 mg nightly, ITT",0.8

# From US7465729B2, “Methods of treatment of menopause and perimenopause using eszopiclone” (Sepracor Inc., priority 2004, dated 2008)
